Test results reported in US5869714A, “Salts of omega-3-polyunsaturated fatty acids and pharmaceutical formulations containing them” (Prospa B.V., priority 1994, dated 1999).
Structures can show the parent of a compound that is named as a salt.

How the values were obtained:
[1] = system: erythrocyte phospholipids; assay: DHA content of erythrocyte phospholipids in healthy volunteers after 3 weeks oral treatment; type: in vivo; conditions: 1 g of DHA daily for 3 weeks, sodium salt
Description: Considering that the phospholipid class of the erythrocyte membrane, along with the degree of unsaturation of the acyl chains, does condition red cell deformability and blood viscosity, it has been conducted a study to ascertain the effect of the salts in question on erythrocyte phospholipid composition, which we describe hereunder in illustration. 8 healthy volunteers were then selected and divided into 4 groups which were treated by oral route for 3 weeks with a daily quantity of DHA 1.0 g in the form of ethyl ester (1.1 g), sodium salt (1.1 g), choline salt (1.3 g) and ethanolamine salt (1.2 g). Before and after treatment samples of venous blood were collected and sodium citrate added, then the erythrocytes were isolated, washed for 3 times with saline solution (0.15M NaCl, pH 7.4) at 0° and again suspended in saline solution. 1-ml samples from the red cell suspensions were treated with 5 ml of methanol for 10 minutes then with 5 ml of chloroform containing 2 mg/100 ml of the antioxidant 2,6-di-tert.butyl-4-methyl-phenol (BHT). The organic solvents originating from 3 extractions were evaporated to dryness and the residue, formed by the erythrocyte phospholipids, was subjected to bidimensional chromatography according to Turner J. D. and Rouser G., Anal. Biochem. (Part 1--Erythrocyte lipids), 38, 423, 1970 to separate the different phospholipid classes: silica gel 60H (90 g, Merck) plus Fluorisil (7.2 g, BDH Chemicals) plates were used; the solvent systems consisted of chloroform:methanol: 25% ammonia:water (90:54:5.5:5.5) and chloroform:methanol:acetone:acetic acid:water (60:20:80:20:10). The various classes were identified against standard phospolipids (Sigma Chemical). A sample of total phospholipids and the various stains isolated were treated with 1.5 ml of boron trifluoride-methanol for 1 h at 65° C. under nitrogen, to prepare the methyl esters of the acids contained in the phospholipids to undergo gas-chromatography. To this end a Hewlet-Packard 5890 gas-chromatograph was used, fitted with a ionisation flame detector and with an HPl column 25 m in length and 0.31 mm in int. diameter; elium was used as the carrier gas, the injection port temperature was 320° C. and the detector temperature 340° C. The chamber temperature was programmed at 170° C. for 1 min., then increased by 4°°C./min up to 250° C. and kept at this temperature for 15 minutes.

water solubility = type: physicochemical

CC/C=C\C/C=C\C/C=C\C/C=C\C/C=C\C/C=C\CCC(=O)O [DHA sodium salt, reference compound]
Percent increase in DHA content of erythrocyte phospholipids as compared to baseline values: Phosphatidylcholine ([1]; phosphatidylcholine): 93% | Percent increase in DHA content of erythrocyte phospholipids as compared to baseline values: Phosphatidylethanolamine ([1]; phosphatidylethanolamine): 25% | Percent increase in DHA content of erythrocyte phospholipids as compared to baseline values: Total phospholipids ([1]; total phospholipids): 75%

CC/C=C\C/C=C\C/C=C\C/C=C\C/C=C\CCCC(=O)O [EPA choline salt]
water solubility (water solubility): water-soiuble

CC/C=C\C/C=C\C/C=C\C/C=C\C/C=C\CCCC(=O)O [EPA ethanolamine salt]
water solubility (water solubility): highly water-soluble
